In PubChem BioAssay AID1919001 (Molecular Pharmacology Branch, DTP, NCI, 2023):
Where “and” joins values, the source holds several entries; their conditions need not be identical. Equal entries are not always repeated.

Test system: 699152-130-R-J1-PDC complex spheroid growth
Experiment: Anticancer human tumor 699152-130-R-J1-PDC patient-derived pancreatic carcinoma cell line growth inhibition [AhR]
Conditions: for viability, T/C: stronger effect = lower value
Outline: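 Complex tumor spheroids co-cultured with HUVEC and human MSC stroma; AhR antagonists tested in combination with standard-of-care and investigational agents. Top concentration at or near clinical Cmax (else 10 microM), half-log dilutions; growth expressed as percent test/control.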

[1] = curve of first compound, second compound 0.1 µM
[2] = curve of first compound, second compound 0.316 µM
[3] = curve of first compound, second compound 1 µM
[4] = curve of first compound, second compound 3.16 µM
[5] = curve of first compound, second compound 10 µM
[6] = second compound 0.1 µM, first compound 0.0316 µM
[7] = second compound 0.1 µM, first compound 0.1 µM
[8] = second compound 0.1 µM, first compound 0.316 µM
[9] = second compound 0.1 µM, first compound 1 µM
[10] = second compound 0.1 µM, first compound 3.16 µM
[11] = second compound 0.1 µM, first compound 10 µM
[12] = second compound 0.316 µM, first compound 0.0316 µM
[13] = second compound 0.316 µM, first compound 0.1 µM
[14] = second compound 0.316 µM, first compound 0.316 µM
[15] = second compound 0.316 µM, first compound 1 µM
[16] = second compound 0.316 µM, first compound 3.16 µM
[17] = second compound 0.316 µM, first compound 10 µM
[18] = second compound 1 µM, first compound 0.0316 µM
[19] = second compound 1 µM, first compound 0.1 µM
[20] = second compound 1 µM, first compound 0.316 µM
[21] = second compound 1 µM, first compound 1 µM
[22] = second compound 1 µM, first compound 3.16 µM
[23] = second compound 1 µM, first compound 10 µM
[24] = second compound 3.16 µM, first compound 0.0316 µM
[25] = second compound 3.16 µM, first compound 0.1 µM
[26] = second compound 3.16 µM, first compound 0.316 µM
[27] = second compound 3.16 µM, first compound 1 µM
[28] = second compound 3.16 µM, first compound 3.16 µM
[29] = second compound 3.16 µM, first compound 10 µM
[30] = second compound 10 µM, first compound 0.0316 µM
[31] = second compound 10 µM, first compound 0.1 µM
[32] = second compound 10 µM, first compound 0.316 µM
[33] = second compound 10 µM, first compound 1 µM
[34] = second compound 10 µM, first compound 3.16 µM
[35] = second compound 10 µM, first compound 10 µM
[36] = second compound 0.1 µM, first compound 0.00316 µM
[37] = second compound 0.1 µM, first compound 0.01 µM
[38] = second compound 0.316 µM, first compound 0.00316 µM
[39] = second compound 0.316 µM, first compound 0.01 µM
[40] = second compound 1 µM, first compound 0.00316 µM
[41] = second compound 1 µM, first compound 0.01 µM
[42] = second compound 3.16 µM, first compound 0.00316 µM
[43] = second compound 3.16 µM, first compound 0.01 µM
[44] = second compound 10 µM, first compound 0.00316 µM
[45] = second compound 10 µM, first compound 0.01 µM
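Note: compound exposure lasted 7 days after spheroids had grown for 3 days.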

Nc1ccccc1NC(=O)c1ccc(CNC(=O)OCc2cccnc2)cc1 + CC(CO)NC(=O)c1cc(-c2ccc(Cl)cc2)nn(-c2cnn(C)c2)c1=O
IC50 [1]: 8.23 µM | IC50 [2]: 6.81 µM | IC50 [3]: 7.78 µM | IC50 [4]: 7.59 µM | IC50 [5]: 6.07 µM | viability, T/C [6]: 98.3% | viability, T/C [7]: 99.1% | viability, T/C [8]: 99.3% | viability, T/C [9]: 99.2% | viability, T/C [10]: 72.6% | viability, T/C [11]: 45.4% | viability, T/C [12]: 97.3% | viability, T/C [13]: 110% | viability, T/C [14]: 107% | viability, T/C [15]: 91.3% | viability, T/C [16]: 78% | viability, T/C [17]: 36.5% | viability, T/C [18]: 97.7% | viability, T/C [19]: 91.4% | viability, T/C [20]: 98.4% | viability, T/C [21]: 92.9% | viability, T/C [22]: 71% | viability, T/C [23]: 44.1% | viability, T/C [24]: 90.2% | viability, T/C [25]: 84.7% | viability, T/C [26]: 97.2% | viability, T/C [27]: 82.2% | viability, T/C [28]: 74.1% | viability, T/C [29]: 42.4% | viability, T/C [30]: 96% | viability, T/C [31]: 88% | viability, T/C [32]: 86.1% | viability, T/C [33]: 83.7% | viability, T/C [34]: 70.8% | viability, T/C [35]: 34.4%

CC1COCCN1c1cc(-c2ccnn2C)c2ccnc(-c3ccn[nH]3)c2n1 (centres undefined) + Cc1cncc(-c2nc(NCCc3c[nH]c4ccccc34)c3ncn(C(C)C)c3n2)c1
IC50 [1]: > 1 µM | IC50 [2]: > 1 µM | IC50 [3]: > 1 µM | IC50 [4]: 0.489 µM | IC50 [5]: < 0.00316 µM | viability, T/C [36]: 109% | viability, T/C [37]: 94.4% | viability, T/C [6]: 107% | viability, T/C [7]: 96.5% | viability, T/C [8]: 75.7% | viability, T/C [9]: 64.4% | viability, T/C [38]: 119% | viability, T/C [39]: 122% | viability, T/C [12]: 103% | viability, T/C [13]: 88.3% | viability, T/C [14]: 81.6% | viability, T/C [15]: 62% | viability, T/C [40]: 127% | viability, T/C [41]: 128% | viability, T/C [18]: 135% | viability, T/C [19]: 105% | viability, T/C [20]: 79.9% | viability, T/C [21]: 64.9% | viability, T/C [42]: 77.6% | viability, T/C [43]: 64.1% | viability, T/C [24]: 67.2% | viability, T/C [25]: 57.4% | viability, T/C [26]: 52.5% | viability, T/C [27]: 46% | viability, T/C [44]: 5.06% | viability, T/C [45]: 5.37% | viability, T/C [30]: 5.23% | viability, T/C [31]: 5.76% | viability, T/C [32]: 7.12% | viability, T/C [33]: 9.33%

Cn1ncnc1C1c2n[nH]c(=O)c3cc(F)cc(c23)NC1c1ccc(F)cc1 (centres undefined) + CC(CO)NC(=O)c1cc(-c2ccc(Cl)cc2)nn(-c2cnn(C)c2)c1=O
IC50 [1]: > 0.1 µM | IC50 [2]: > 0.1 µM | IC50 [3]: > 0.1 µM | IC50 [4]: > 0.1 µM | IC50 [5]: > 0.1 µM | viability, T/C (second compound 0.1 µM, first compound 0.000316 µM): 102% | viability, T/C (second compound 0.1 µM, first compound 0.001 µM): 113% | viability, T/C [36]: 104% | viability, T/C [37]: 108% | viability, T/C [6]: 102% | viability, T/C [7]: 98.9% | viability, T/C (second compound 0.316 µM, first compound 0.000316 µM): 105% | viability, T/C (second compound 0.316 µM, first compound 0.001 µM): 102% | viability, T/C [38]: 120% | viability, T/C [39]: 103% | viability, T/C [12]: 86.2% | viability, T/C [13]: 103% | viability, T/C (second compound 1 µM, first compound 0.000316 µM): 101% | viability, T/C (second compound 1 µM, first compound 0.001 µM): 99.3% | viability, T/C [40]: 102% | viability, T/C [41]: 101% | viability, T/C [18]: 101% | viability, T/C [19]: 102% | viability, T/C (second compound 3.16 µM, first compound 0.000316 µM): 91.5% | viability, T/C (second compound 3.16 µM, first compound 0.001 µM): 95.3% | viability, T/C [42]: 97.6% | viability, T/C [43]: 96.9% | viability, T/C [24]: 92.9% | viability, T/C [25]: 84.2% | viability, T/C (second compound 10 µM, first compound 0.000316 µM): 95.4% | viability, T/C (second compound 10 µM, first compound 0.001 µM): 81.3% | viability, T/C [44]: 91% | viability, T/C [45]: 85.5% | viability, T/C [30]: 80.1% | viability, T/C [31]: 79.5%

COc1cc(C2c3cc4c(cc3C(OC3OC5COC(C)OC5C(O)C3O)C3COC(=O)C23)OCO4)cc(OC)c1O (centres undefined) + CC(CO)NC(=O)c1cc(-c2ccc(Cl)cc2)nn(-c2cnn(C)c2)c1=O
IC50 [1]: 9.98 µM | IC50 [2]: 8.52 µM | IC50 [3]: > 10 µM | IC50 [4]: 6.67 µM | IC50 [5]: 7.75 µM | viability, T/C [6]: 101% | viability, T/C [7]: 98.3% | viability, T/C [8]: 87.8% | viability, T/C [9]: 69.4% | viability, T/C [10]: 61.9% | viability, T/C [11]: 48.6% | viability, T/C [12]: 93.7% | viability, T/C [13]: 93.7% | viability, T/C [14]: 74% | viability, T/C [15]: 61.2% | viability, T/C [16]: 54.8% | viability, T/C [17]: 47.5% | viability, T/C [18]: 95.1% | viability, T/C [19]: 92.3% | viability, T/C [20]: 82.2% | viability, T/C [21]: 73.3% | viability, T/C [22]: 53.2% | viability, T/C [23]: 53.9% | viability, T/C [24]: 82.4% | viability, T/C [25]: 86% | viability, T/C [26]: 69.5% | viability, T/C [27]: 65.5% | viability, T/C [28]: 59.1% | viability, T/C [29]: 45.5% | viability, T/C [30]: 77.6% | viability, T/C [31]: 82.9% | viability, T/C [32]: 79.7% | viability, T/C [33]: 57% | viability, T/C [34]: 57.1% | viability, T/C [35]: 43.3%

Cn1ncnc1C1c2n[nH]c(=O)c3cc(F)cc(c23)NC1c1ccc(F)cc1 (centres undefined)
viability, T/C (compound 0.000316 µM): 103% and 92% and 97.7% | viability, T/C (compound 0.001 µM): 100% and 90.9% and 98.2% | viability, T/C (compound 0.00316 µM): 109% and 95.2% and 113% | viability, T/C (compound 0.01 µM): 101% and 102% and 111% | viability, T/C (compound 0.0316 µM): 102% and 100% and 97.5% | viability, T/C (compound 0.1 µM): 104% and 86.2% and 91% | IC50 (curve of compound): > 0.1 µM

COc1cc(C2c3cc4c(cc3C(OC3OC5COC(C)OC5C(O)C3O)C3COC(=O)C23)OCO4)cc(OC)c1O (centres undefined)
viability, T/C (compound 0.0316 µM): 97.3% and 94.8% and 92.4% | viability, T/C (compound 0.1 µM): 94.7% and 101% and 86.3% | viability, T/C (compound 0.316 µM): 76.1% and 83.2% and 73.8% | viability, T/C (compound 1 µM): 66.5% and 70.9% and 62.2% | viability, T/C (compound 3.16 µM): 68.3% and 64.6% and 51.9% | viability, T/C (compound 10 µM): 53.4% and 53.8% and 44.4% | IC50 (curve of compound): > 10 µM and 4.09 µM
